Results reported in ChEMBL document CHEMBL1139253, “Effect of methyl substitution in a ligand on the selectivity and binding affinity for a nucleobase: a case study with isoxanthopterin and its derivatives” (Bioorg Med Chem, 2009).

Key:
[1] = Binding affinity to target base C of 5'-TCC AGX GCA AC-3'/3'_AGG TCC CGT TG-5' 11 mer duplex DNA containing abasic site assessed as melting temperature at 150 uM by spectrophotometric analysis relative to control
[2] = Binding affinity to target base G of 5'-TCC AGX GCA AC-3'/3'_AGG TCG CGT TG-5' 11 mer duplex DNA containing abasic site assessed as melting temperature at 150 uM by spectrophotometric analysis relative to control
[3] = Binding affinity to target base A of 5'-TCC AGX GCA AC-3'/3'_AGG TCA CGT TG-5' 11 mer duplex DNA containing abasic site assessed as melting temperature at 150 uM by spectrophotometric analysis
[4] = Binding affinity to target base C of 5'-TCC AGX GCA AC-3'/3'_AGG TCC CGT TG-5' 11 mer duplex DNA containing abasic site assessed as melting temperature at 150 uM by spectrophotometric analysis
[5] = Binding affinity to target base A of 5'-TCC AGX GCA AC-3'/3'_AGG TCA CGT TG-5' 11 mer duplex DNA containing abasic site assessed as melting temperature at 150 uM by spectrophotometric analysis relative to control
[6] = Binding affinity to target base T of 5'-TCC AGX GCA AC-3'/3'_AGG TCT CGT TG-5' 11 mer duplex DNA containing abasic site at 10 uM by fluorescence quenching measurement
[7] = Binding affinity to target base G of 5'-TCC AGX GCA AC-3'/3'_AGG TCG CGT TG-5' 11 mer duplex DNA containing abasic site assessed as melting temperature at 150 uM by spectrophotometric analysis
[8] = Binding affinity to target base T of 5'-TCC AGX GCA AC-3'/3'_AGG TCT CGT TG-5' 11 mer duplex DNA containing abasic site assessed as melting temperature at 150 uM by spectrophotometric analysis relative to control
[9] = Binding affinity to target base T of 5'-TCC AGX GCA AC-3'/3'_AGG TCT CGT TG-5' 11 mer duplex DNA containing abasic site assessed as melting temperature at 150 uM by spectrophotometric analysis
[10] = Binding affinity to target base C of 5'-TCC AGX GCA AC-3'/3'_AGG TCC CGT TG-5' 11 mer duplex DNA containing abasic site at 10 uM by fluorescence quenching measurement

| ΔTm [1] [°C] | ΔTm [2] [°C] | Tm [3] [°C] | Tm [4] [°C] | ΔTm [5] [°C] | Tm [7] [°C] | ΔTm [8] [°C] | Tm [9] [°C] | SMILES | Activity [6] [%] | Activity [10] [%] |
| --- | --- | --- | --- | --- | --- | --- | --- | --- | --- | --- |
| 0.4 | 0.9 | 35.6 | 29.6 | 1.8 | 34.9 | 6 | 33.9 | Cn1c(N)nc2[nH]c(=O)cnc2c1=O | 72.9 |  |
| 5.9 | 0.9 | 34 | 35.1 | 0.2 | 34.9 | 1.8 | 29.7 | Cn1c(=O)cnc2c(=O)[nH]c(N)nc21 |  | 72 |

| SMILES | ΔTm [1] [°C] | ΔTm [2] [°C] | Tm [3] [°C] | Tm [4] [°C] | ΔTm [5] [°C] | Tm [7] [°C] | ΔTm [8] [°C] | Tm [9] [°C] | Activity [6] [%] | Activity [10] [%] |
| --- | --- | --- | --- | --- | --- | --- | --- | --- | --- | --- |
| Nc1nc2[nH]c(=O)cnc2c(=O)[nH]1 | 4.5 | -0.4 | 36 | 33.7 | 2.2 | 33.6 | 4.8 | 32.7 | 51.7 | 43.5 |
